How the values were obtained:
ISC-enriched organoids [1] = assay: Primary screen, 384-well 2.5-D organoid differentiation (ENR+CD, 6 days): basal lysozyme secretion (LYZ.NS); format: cell-based, murine; settings: for Dose.FC.LYZ.NS: FC vs plate median; for Dose.FC.LYZ.NS (log 2 fold change): vs plate median
Source text: (§1) High-throughput screening.

ISC-enriched organoids [2] = assay: Primary screen, 384-well 2.5-D organoid differentiation (ENR+CD, 6 days, Target Selective Inhibitor Library, vs whole-plate median): ATP (CellTiter-Glo 3D, CTG); settings: for Dose.FC.CTG: FC vs plate median; for Dose.FC.CTG (log 2 fold change): vs plate median
ISC-enriched organoids [3] = assay: Primary screen, 384-well 2.5-D organoid differentiation (ENR+CD, 6 days): carbachol-induced lysozyme secretion (LYZ.S); format: cell-based, murine; settings: primary screen; for Dose.FC.LYZ.S: FC vs plate median; for Dose.FC.LYZ.S (log 2 fold change): vs plate median
Source text: as §1

[4] = primary screen, dose 0.08 uM, ENR+CD 6 days
[5] = primary screen, dose 0.08 uM, standard z score of FC
[6] = primary screen, dose 0.40 uM, ENR+CD 6 days
[7] = primary screen, dose 0.40 uM, standard z score of FC
[8] = primary screen, dose 2.00 uM, ENR+CD 6 days
[9] = primary screen, dose 2.00 uM, standard z score of FC
[10] = primary screen, dose 10.00 uM, ENR+CD 6 days
[11] = primary screen, dose 10.00 uM, standard z score of FC
[12] = Dose 0.08 uM, standard z score of FC
[13] = Dose 0.40 uM, standard z score of FC
[14] = Dose 2.00 uM, standard z score of FC
[15] = Dose 10.00 uM, standard z score of FC
[16] = Dose 0.08 uM, primary screen, standard z score
[17] = Dose 0.40 uM, primary screen, standard z score
[18] = Dose 2.00 uM, primary screen, standard z score
[19] = Dose 10.00 uM, primary screen, standard z score

CC(=O)Nc1cccc2c1c(Sc1ccc(Cl)cc1)c(C)n2CC(=O)O [AZD1981]
Dose.FC.LYZ.NS (ISC-enriched organoids [1]; [4]): 0.009 log 2 fold change
Z.LYZ.NS (ISC-enriched organoids [1]; [5]): 0.081
Dose.FC.LYZ.NS (ISC-enriched organoids [1]; [6]): 0.001 log 2 fold change
Z.LYZ.NS (ISC-enriched organoids [1]; [7]): 0.008
Dose.FC.LYZ.NS (ISC-enriched organoids [1]; [8]): 0.001 log 2 fold change
Z.LYZ.NS (ISC-enriched organoids [1]; [9]): 0.011
Dose.FC.LYZ.NS (ISC-enriched organoids [1]; [10]): 0.024 log 2 fold change
Z.LYZ.NS (ISC-enriched organoids [1]; [11]): 0.205
Dose.FC.CTG (ISC-enriched organoids [2]; [4]): 0.400 log 2 fold change
Z.CTG (ISC-enriched organoids [2]; [5]): 0.955
Dose.FC.CTG (ISC-enriched organoids [2]; [6]): 0.285 log 2 fold change
Z.CTG (ISC-enriched organoids [2]; [7]): 0.681
Dose.FC.CTG (ISC-enriched organoids [2]; [8]): 0.099 log 2 fold change
Z.CTG (ISC-enriched organoids [2]; [9]): 0.236
Dose.FC.CTG (ISC-enriched organoids [2]; [10]): 0.238 log 2 fold change
Z.CTG (ISC-enriched organoids [2]; [11]): 0.570
Dose.FC.LYZ.S (ISC-enriched organoids [3]; dose 0.08 uM, ENR+CD 6 days): 0.023 log 2 fold change
Dose.FC.LYZ.S (ISC-enriched organoids [3]; dose 0.40 uM, ENR+CD 6 days): 0.191 log 2 fold change
Dose.FC.LYZ.S (ISC-enriched organoids [3]; dose 2.00 uM, ENR+CD 6 days): 0.014 log 2 fold change
Dose.FC.LYZ.S (ISC-enriched organoids [3]; dose 10.00 uM, ENR+CD 6 days): 0.070 log 2 fold change

O=C(NNc1ccccc1)c1ccncc1 [PluriSIn #1 (NSC 14613)]
Dose.FC.LYZ.NS (ISC-enriched organoids [1]; Dose 0.08 uM, primary screen): 0.083 log 2 fold change
Z.LYZ.NS (ISC-enriched organoids [1]; [12]): 0.720
Dose.FC.LYZ.NS (ISC-enriched organoids [1]; Dose 0.40 uM, primary screen): 0.004 log 2 fold change
Z.LYZ.NS (ISC-enriched organoids [1]; [13]): 0.039
Dose.FC.LYZ.NS (ISC-enriched organoids [1]; Dose 2.00 uM, primary screen): −0.107 log 2 fold change
Z.LYZ.NS (ISC-enriched organoids [1]; [14]): −0.929
Dose.FC.LYZ.NS (ISC-enriched organoids [1]; Dose 10.00 uM, primary screen): −0.284 log 2 fold change
Z.LYZ.NS (ISC-enriched organoids [1]; [15]): −2.475
Dose.FC.CTG (ISC-enriched organoids [2]; Dose 0.08 uM, primary screen): −0.146 log 2 fold change
Z.CTG (ISC-enriched organoids [2]; [12]): −0.349
Dose.FC.CTG (ISC-enriched organoids [2]; Dose 0.40 uM, primary screen): −0.095 log 2 fold change
Z.CTG (ISC-enriched organoids [2]; [13]): −0.226
Dose.FC.CTG (ISC-enriched organoids [2]; Dose 2.00 uM, primary screen): −0.433 log 2 fold change
Z.CTG (ISC-enriched organoids [2]; [14]): −1.035
Dose.FC.CTG (ISC-enriched organoids [2]; Dose 10.00 uM, primary screen): −0.853 log 2 fold change
Z.CTG (ISC-enriched organoids [2]; [15]): −2.038
Dose.FC.LYZ.S (ISC-enriched organoids [3]; Dose 0.08 uM): 0.057 log 2 fold change
Dose.FC.LYZ.S (ISC-enriched organoids [3]; Dose 0.40 uM): −0.007 log 2 fold change
Dose.FC.LYZ.S (ISC-enriched organoids [3]; Dose 2.00 uM): −0.133 log 2 fold change
Dose.FC.LYZ.S (ISC-enriched organoids [3]; Dose 10.00 uM): −0.372 log 2 fold change

O=C1CC(=O)c2c(Cl)c(Cl)c(Cl)c(Cl)c21 [TCID]
Z.LYZ.NS (standard z score) (ISC-enriched organoids [1]; Dose 0.08 uM, primary screen): 0.431
Dose.FC.LYZ.NS (log 2 fold change) (ISC-enriched organoids [1]; Dose 0.08 uM, primary screen): 0.049
Z.LYZ.NS (standard z score) (ISC-enriched organoids [1]; Dose 0.40 uM, primary screen): −0.155
Dose.FC.LYZ.NS (log 2 fold change) (ISC-enriched organoids [1]; Dose 0.40 uM, primary screen): −0.018
Z.LYZ.NS (standard z score) (ISC-enriched organoids [1]; Dose 2.00 uM, primary screen): 0.578
Dose.FC.LYZ.NS (log 2 fold change) (ISC-enriched organoids [1]; Dose 2.00 uM, primary screen): 0.066
Z.LYZ.NS (standard z score) (ISC-enriched organoids [1]; Dose 10.00 uM, primary screen): −0.159
Dose.FC.LYZ.NS (log 2 fold change) (ISC-enriched organoids [1]; Dose 10.00 uM, primary screen): −0.018
Z.CTG (standard z score) (ISC-enriched organoids [2]; Dose 0.08 uM, primary screen): −0.325
Dose.FC.CTG (log 2 fold change) (ISC-enriched organoids [2]; Dose 0.08 uM, primary screen): −0.136
Z.CTG (standard z score) (ISC-enriched organoids [2]; Dose 0.40 uM, primary screen): −0.017
Dose.FC.CTG (log 2 fold change) (ISC-enriched organoids [2]; Dose 0.40 uM, primary screen): −0.007
Z.CTG (standard z score) (ISC-enriched organoids [2]; Dose 2.00 uM, primary screen): −0.517
Dose.FC.CTG (log 2 fold change) (ISC-enriched organoids [2]; Dose 2.00 uM, primary screen): −0.217
Z.CTG (standard z score) (ISC-enriched organoids [2]; Dose 10.00 uM, primary screen): −0.545
Dose.FC.CTG (log 2 fold change) (ISC-enriched organoids [2]; Dose 10.00 uM, primary screen): −0.228
Dose.FC.LYZ.S (log 2 fold change) (ISC-enriched organoids [3]; Dose 0.08 uM): 0.062
Dose.FC.LYZ.S (log 2 fold change) (ISC-enriched organoids [3]; Dose 0.40 uM): 0.017
Dose.FC.LYZ.S (log 2 fold change) (ISC-enriched organoids [3]; Dose 2.00 uM): −0.066
Dose.FC.LYZ.S (log 2 fold change) (ISC-enriched organoids [3]; Dose 10.00 uM): −0.054

COc1ccc2c(c1)c(C1=C(c3c[nH]c4ccccc34)C(=O)NC1=O)cn2CCCN(C)C [Go 6983]
Dose.FC.LYZ.NS (ISC-enriched organoids [1]; Dose 0.08 uM, primary screen): −0.005 log 2 fold change
Z.LYZ.NS (ISC-enriched organoids [1]; [16]): −0.046
Dose.FC.LYZ.NS (ISC-enriched organoids [1]; Dose 0.40 uM, primary screen): 0.013 log 2 fold change
Z.LYZ.NS (ISC-enriched organoids [1]; [17]): 0.114
Dose.FC.LYZ.NS (ISC-enriched organoids [1]; Dose 2.00 uM, primary screen): 0.091 log 2 fold change
Z.LYZ.NS (ISC-enriched organoids [1]; [18]): 0.791
Dose.FC.LYZ.NS (ISC-enriched organoids [1]; Dose 10.00 uM, primary screen): −0.092 log 2 fold change
Z.LYZ.NS (ISC-enriched organoids [1]; [19]): −0.798
Dose.FC.CTG (ISC-enriched organoids [2]; Dose 0.08 uM, primary screen): 0.021 log 2 fold change
Z.CTG (ISC-enriched organoids [2]; [16]): 0.050
Dose.FC.CTG (ISC-enriched organoids [2]; Dose 0.40 uM, primary screen): −0.036 log 2 fold change
Z.CTG (ISC-enriched organoids [2]; [17]): −0.085
Dose.FC.CTG (ISC-enriched organoids [2]; Dose 2.00 uM, primary screen): 0.058 log 2 fold change
Z.CTG (ISC-enriched organoids [2]; [18]): 0.138
Dose.FC.CTG (ISC-enriched organoids [2]; Dose 10.00 uM, primary screen): −0.181 log 2 fold change
Z.CTG (ISC-enriched organoids [2]; [19]): −0.433
Dose.FC.LYZ.S (ISC-enriched organoids [3]; Dose 0.08 uM): 0.021 log 2 fold change
Dose.FC.LYZ.S (ISC-enriched organoids [3]; Dose 0.40 uM): 0.007 log 2 fold change
Dose.FC.LYZ.S (ISC-enriched organoids [3]; Dose 2.00 uM): −0.010 log 2 fold change
Dose.FC.LYZ.S (ISC-enriched organoids [3]; Dose 10.00 uM): −0.073 log 2 fold change
